Reference: the supplement of paper PMC12613149

Key:
[1] = collision cross section (TIMS, N2 drift gas) of the primary ion; higher = larger gas-phase ion size
[2] = reversed-phase LC retention time (C18, 15 min MeOH gradient); higher = more hydrophobic / later elution
[3] = ionization mode: ESI+, ion species: [M+H]+
[4] = ionization mode: ESI+, ion species: [M]+
[5] = ionization mode: ESI-, ion species: [M-H]-

Row | SMILES | collision cross section [1, 3] | reversed-phase LC retention time [2, 3] | collision cross section [1, 4] | reversed-phase LC retention time [2, 4] | collision cross section [1, 5] | reversed-phase LC retention time [2, 5]
1 | CCCCc1c(C)nc(NCC)nc1OS(=O)(=O)N(C)C [Bupirimate] | 176.08 Å² | 14.7 min |  |  |  | 
2 | CCCCCCCCCCCCCCCC[N+](C)(C)Cc1ccccc1 [Benzyldimethylhexadecylammonium] |  |  | 213.31 Å² | 17.8 min |  | 
3 | Nc1ccc(Oc2ccc(Cl)cc2Cl)cc1C(=O)O [Aminobifenox acid] | 173.06 Å² | 15.4 min |  |  | 169.52 Å² | 13.2 min
4 | Nc1ccc(Cc2ccc(N)cc2)cc1 [4,4'-Methylenedianiline] | 162.72 Å² | 5.68 min |  |  |  | 
5 | CC(C1CC1)C(O)(Cn1cncn1)c1ccc(Cl)cc1 (stereo not given) [Cyproconazole_1] | 170.22 Å² | 14.4 min |  |  |  | 
6 | Oc1cc(-c2ccc(Cl)cc2)ccc1Cl [3-Hydroxy-4,4'-dichlorobiphenyl] |  |  |  |  | 149.63 Å² | 16.1 min
7 | CCN(CC)c1ccccc1 [Diethylphenylamine] | 129.02 Å² | 6.93 min |  |  |  | 
8 | CCNC(=O)C(C)Oc1cccc2ccccc12 (stereo not given) [Desethyl-napropamide] | 159.85 Å² | 14 min |  |  |  | 
9 | CCc1cccc(C)c1N(C(=O)CCl)C(C)COC (stereo not given) [Metolachlor] | 160.17 Å² | 15.1 min |  |  |  | 
10 | CC(c1ccc(O)cc1)(c1ccc(O)cc1)c1ccc(O)cc1 [1,1,1-Tris(4-hydroxyphenyl)ethane] |  |  |  |  | 183.23 Å² | 12.4 min
11 | C[C@H]1C[C@@H]2[C@H]([C@@H](O)C[C@@]3(C)[C@H]2CC[C@]3(O)C(=O)CO)[C@@]2(C)C=CC(=O)C=C12 [6alpha-Methylprednisolone] | 190.78 Å² | 13.3 min |  |  |  | 
12 | O=C(Nc1ccccc1)N(Cc1ccc(Cl)cc1)C1CCCC1 [Pencycuron] | 181.17 Å² | 16.1 min |  |  |  | 
13 | CN1C(=O)CC[C@H]1c1cccnc1 [Cotinine] | 143.26 Å² | 3.34 min |  |  |  | 
14 | CN(C)CCCC1(c2ccc(F)cc2)OCc2cc(C#N)ccc21 (stereo not given) [Citalopram] | 182.06 Å² | 11.3 min |  |  |  | 
15 | CC[C@@H](C(=O)[C@@H](C)[C@@H](O)[C@H](C)[C@@H]1O[C@@H]([C@@H](CC)C(=O)O)CC[C@@H]1C)[C@H]1O[C@]2(C=C[C@@H](O)[C@]3(CC[C@@](C)([C@H]4CC[C@](O)(CC)[C@H](C)O4)O3)O2)[C@H](C)C[C@@H]1C [Salinomycin] |  |  |  |  | 263.17 Å² | 18.5 min
16 | Cc1ccc(OP(=O)(Oc2ccc(C)cc2)Oc2ccc(C)cc2)cc1 [Tricresylphosphate] | 190.01 Å² | 17.2 min |  |  |  | 
17 | CCCCCCS(=O)(=O)O [1-Hexanesulfonic acid] |  |  |  |  | 137.49 Å² | 9.04 min
18 | CCN(CC)C(=O)c1cccc(C(=O)O)c1 [DEET carboxylic acid] | 151.03 Å² | 10.8 min |  |  | 157.09 Å² | 8.24 min

Row | SMILES | collision cross section [1, 3] | reversed-phase LC retention time [2, 3] | collision cross section [1, 4] | reversed-phase LC retention time [2, 4] | collision cross section [1, 5] | reversed-phase LC retention time [2, 5]
19 | Cc1cc(Cc2ccc(N)c(C)c2)ccc1N [4,4'-Methylene-bis(2-methyl aniline)] | 171.67 Å² | 8.47 min |  |  |  | 
20 | CC12CCC(=O)C=C1C=CC1[C@@H]2CCC2(C)[C@H]1CCC21CCC(=O)O1 (stereo not given in full) [Canrenone] | 186.86 Å² | 14.2 min |  |  |  | 
21 | O=C(O)c1cn(C2CC2)c2cc(N3CCNCC3)c(F)cc2c1=O [Ciprofloxacin] | 175.82 Å² | 8.22 min |  |  |  | 
22 | Oc1cccc2[nH]nnc12 [4-Hydroxybenzotriazole] | 123.13 Å² | 5.99 min |  |  |  | 
23 | Nc1nc(NC2CC2)c2ncn([C@H]3C=C[C@@H](CO)C3)c2n1 [Abacavir] | 168.31 Å² | 8 min |  |  |  | 
24 | CON(C)C(=O)Nc1ccc(Cl)c(Cl)c1 [Linuron] | 152.6 Å² | 13.7 min |  |  | 149.38 Å² | 14 min
25 | OC(Cc1ccccc1Cl)(Cn1cncn1)C1(Cl)CC1 (stereo not given) [Prothioconazole-desthio] | 168.06 Å² | 14.9 min |  |  |  | 
26 | Oc1ccc(C(c2ccccc2)(c2ccccc2)c2ccc(O)cc2)cc1 [Bisphenol BP] |  |  |  |  | 196.58 Å² | 16 min
27 | O=C(O)C1C(C(=O)O)C2(Cl)C(Cl)=C(Cl)C1(Cl)C2(Cl)Cl (stereo not given) |  |  |  |  | 159.01 Å² | 10.3 min
28 | COc1nc(C)nc(NC(=O)NS(=O)(=O)c2ccccc2CCC(F)(F)F)n1 [Prosulfuron] | 188.2 Å² | 13.9 min |  |  | 189.48 Å² | 11.9 min
29 | Cc1c(N)c(=O)n(-c2ccccc2)n1C [4-Aminoantipyrine] | 142.4 Å² | 7.19 min |  |  |  | 
30 | C=CCC1(C(C)CCC)C(=O)NC(=O)NC1=O (stereo not given) [Secobarbital] |  |  |  |  | 153.23 Å² | 12.7 min
31 | CC(=O)CCc1ccc(O)cc1 [4-(4-Hydroxyphenyl)butan-2-one] | 132.84 Å² | 11.7 min |  |  | 135.07 Å² | 11.9 min
32 | CC(C)N(C(=O)COc1nnc(C(F)(F)F)s1)c1ccc(F)cc1 [Flufenacet] | 178.11 Å² | 14.9 min |  |  |  | 
33 | CC(=O)CCCCn1c(=O)c2c(ncn2C)n(C)c1=O [Pentoxifylline] | 160.14 Å² | 9.78 min |  |  |  | 
34 | O=C(NC(=O)c1c(F)cccc1F)Nc1ccc(Cl)cc1 [Diflubenzuron] | 163.34 Å² | 15.1 min |  |  | 167.93 Å² | 15.5 min
35 | CCC1OC(=O)C(C)C(OC2CC(C)(OC)C(O)C(C)O2)C(C)C(OC2OC(C)CC(N(C)C)C2O)C(C)(OC)CC(C)C(=O)C(C)C(O)C1(C)O (stereo not given) [Clarithromycin] | 267.43 Å² | 13.9 min |  |  |  | 

Next, values leading:

Row | collision cross section [1, 3] | reversed-phase LC retention time [2, 3] | collision cross section [1, 4] | reversed-phase LC retention time [2, 4] | collision cross section [1, 5] | reversed-phase LC retention time [2, 5] | SMILES
36 | 189.25 Å² | 12.4 min |  |  |  |  | C[C@]12CCC(=O)C=C1CC[C@@H]1[C@@H]2[C@@H](O)C[C@@]2(C)[C@H]1CC[C@]2(O)C(=O)CO [Hydrocortisone]
37 | 158.9 Å² | 13.2 min |  |  | 163.97 Å² | 12.2 min | COc1ccc(-c2coc3cc(O)ccc3c2=O)cc1 [Formononetin]
38 |  |  | 123.33 Å² | 1.03 min |  |  | CC[N+](CC)(CC)CC [Tetraethylammonium]
39 | 167.22 Å² | 15.5 min |  |  |  |  | CCCCCCCCCCCCNC [N-Methyldodecylamine]
40 | 132.76 Å² | 8.82 min |  |  |  |  | CN(C)C(=O)Nc1ccccc1 [Fenuron]
41 | 192.92 Å² | 9.57 min |  |  | 182.72 Å² | 12.1 min | NC(CC(=O)N1CCn2c(nnc2C(F)(F)F)C1)Cc1cc(F)c(F)cc1F (stereo not given) [Sitagliptin]
42 | 200.91 Å² | 14.9 min |  |  |  |  | OCCN1CCN(CC/C=C2/c3ccccc3Sc3ccc(C(F)(F)F)cc32)CC1 [Flupentixol_1]
43 | 155.89 Å² | 17.1 min |  |  | 159.96 Å² | 10.7 min | O=C(O)c1ccccc1C(=O)OCc1ccccc1 [Monobenzyl phthalate]
44 | 168.6 Å² | 6.09 min |  |  | 181.06 Å² | 10.1 min | CN/C(=C\[N+](=O)[O-])NCCSCc1ccc(CN(C)C)o1 [Ranitidine]
45 | 148.84 Å² | 10.1 min |  |  |  |  | CCCCN(CCCC)CCCC [Tributylamine]
46 |  |  |  |  | 222.47 Å² | 11.9 min | COc1cc(C2c3cc4c(cc3C(OC3OC5COC(C)OC5C(O)C3O)C3COC(=O)C23)OCO4)cc(OC)c1O (stereo not given) [Etoposide_1]
47 | 163.51 Å² | 7.95 min |  |  |  |  | CCCN(CCC)CCc1cccc2c1CC(=O)N2 [Ropinirole]
48 | 175.08 Å² | 9.7 min |  |  | 178.82 Å² | 8.94 min | Cc1cccc(C)c1N(Cn1cccn1)C(=O)CS(=O)CC(=O)O (stereo not given) [Metazachlor BH 479-9]
49 | 192.95 Å² | 11.2 min |  |  |  |  | O=C1Cc2cc(CCN3CCN(c4nsc5ccccc45)CC3)c(Cl)cc2N1 [Ziprasidone]
50 |  |  |  |  | 143.19 Å² | 11.5 min | CCNS(=O)(=O)c1ccccc1C [N-Ethyl-o-toluenesulfonamide]
51 | 166.31 Å² | 7.17 min |  |  | 167.47 Å² | 8.23 min | O=S(=O)(O)c1ccc2[nH]c(-c3ccccc3)nc2c1 [Phenylbenzimidazole sulfonic acid]
52 | 173.57 Å² | 9.49 min |  |  |  |  | Cc1nccn1CC1CCc2c(c3ccccc3n2C)C1=O (stereo not given) [Ondansetron]
53 | 135.54 Å² | 2.26 min |  |  |  |  | CN1CCCC1c1cccnc1 (stereo not given) [Nicotine]
54 | 139.91 Å² | 8.87 min |  |  | 137.07 Å² | 6.92 min | Cc1nc(=O)c(-c2ccccc2)n[nH]1 [Metamitron-desamino]
55 | 187.31 Å² | 11.6 min |  |  | 193.85 Å² | 12.2 min | CCOC(=O)[C@H](CCc1ccccc1)N[C@@H](C)C(=O)N1CCC[C@H]1C(=O)O [Enalapril]
56 |  |  |  |  | 192.83 Å² | 15.3 min | CC(C)(c1cc(Br)c(O)c(Br)c1)c1cc(Br)c(O)c(Br)c1 [Tetrabromobisphenol A]
57 | 149.16 Å² | 7.74 min |  |  |  |  | Cc1c(NC=O)c(=O)n(-c2ccccc2)n1C [N-Formyl-4-aminoantipyrine]
58 | 198.29 Å² | 15.7 min |  |  |  |  | CC/C(=C(\c1ccccc1)c1ccc(OCCN(C)C)cc1)c1ccccc1 [Tamoxifen]
59 | 167.87 Å² | 12.7 min |  |  |  |  | C=CCOC(Cn1ccnc1)c1ccc(Cl)cc1Cl (stereo not given) [Imazalil]
60 | 146.78 Å² | 5.75 min |  |  |  |  | Nc1nc(=O)n([C@@H]2CS[C@H](CO)O2)cc1F [Emtricitabine]
61 | 209.29 Å² | 17.4 min |  |  |  |  | CCCCCCOC(=O)c1ccccc1C(=O)c1ccc(N(CC)CC)cc1O [Uvinul A Plus]
